Data as given in ChEMBL document CHEMBL1135135, “Synthesis and cytotoxicity of 2alpha-amido docetaxel analogues” (Bioorg Med Chem Lett, 2002).

How the values were obtained:
Assay type in all cases: functional, cell-based
Settings in all cases: Homo sapiens
[1] = tested on: A549; assay: Inhibitory activity against A549 lung cancer cell line
[2] = tested on: A549; assay: Inhibitory activity against Taxol-resistant A549 lung cancer cell line
[3] = tested on: KB; assay: Inhibitory activity against KB nasopharynx cancer cell line
[4] = tested on: KB; assay: Inhibitory activity against Vincristine-resistant KB nasopharynx cancer cell line
[5] = tested on: MCF7; assay: Inhibitory activity against Adriamycin-resistant MCF-7 breast cancer cell line
[6] = tested on: MCF7; assay: Inhibitory activity against MCF-7 breast cancer cell line

Question: `COc1ccc(C(=O)N[C@H]2C3[C@](C)(C(=O)[C@H](OC(C)=O)C4=C(C)[C@@H](OC(=O)[C@@H](O)[C@@H](NC(=O)OC(C)(C)C)c5ccccc5)C[C@]2(O)C4(C)C)[C@@H](O)C[C@H]2OC[C@@]32OC(C)=O)cc1` (some centres undefined) was tested. Which IC50 [1] did it give?
Answer: > 100 nM

Question: And the IC50 [2]?
Answer: > 1000 nM

Question: What about the IC50 [3] of the same molecule?
Answer: > 100 nM

Question: What about the IC50 [4] of the same molecule?
Answer: > 1000 nM

Question: With `CC(=O)O[C@H]1C(=O)[C@@]2(C)C([C@H](NC(=O)c3ccccc3)[C@]3(O)C[C@H](OC(=O)[C@@H](O)[C@@H](NC(=O)OC(C)(C)C)c4ccccc4)C(C)=C1C3(C)C)[C@]1(OC(C)=O)CO[C@@H]1C[C@@H]2O` (some centres undefined) as the molecule, how does the IC50 [1] read?
Answer: 250 nM

Question: And the IC50 [3]?
Answer: 150 nM

Question: What does the source list for `CC(=O)O[C@H]1C(=O)[C@@]2(C)C([C@H](NC(=O)c3cccc(Cl)c3)[C@]3(O)C[C@H](OC(=O)[C@@H](O)[C@@H](NC(=O)OC(C)(C)C)c4ccccc4)C(C)=C1C3(C)C)[C@@](CO)(OC(C)=O)[C@@H](O)C[C@@H]2O` (some centres undefined)?
Answer: IC50 [1]: > 100 nM; IC50 [2]: > 1000 nM; IC50 [3]: > 100 nM; IC50 [4]: > 1000 nM

Question: With `CC(=O)O[C@H]1C(=O)[C@@]2(C)C([C@H](NC(=O)OCc3ccccc3)[C@]3(O)C[C@H](OC(=O)[C@@H](O)[C@@H](NC(=O)OC(C)(C)C)c4ccccc4)C(C)=C1C3(C)C)[C@]1(OC(C)=O)CO[C@@H]1C[C@@H]2O` (some centres undefined) as the molecule, how does the IC50 [1] read?
Answer: > 100 nM

Question: And the IC50 [2]?
Answer: > 1000 nM

Question: What about the IC50 [3] of the same molecule?
Answer: > 100 nM

Question: And the IC50 [4]?
Answer: > 1000 nM

Question: How did the IC50 [1] turn out when `CC(=O)O[C@H]1C(=O)[C@@]2(C)C([C@H](NC(=O)c3cccc(Cl)c3)[C@]3(O)C[C@H](OC(=O)[C@@H](O)[C@@H](NC(=O)OC(C)(C)C)c4ccccc4)C(C)=C1C3(C)C)[C@]1(OC(C)=O)CO[C@@H]1C[C@@H]2O` (some centres undefined) was run?
Answer: 95 nM

Question: What about the IC50 [2] of the same molecule?
Answer: 1100 nM

Question: What about the IC50 [3] of the same molecule?
Answer: 78 nM

Question: What about the IC50 [4] of the same molecule?
Answer: > 1000 nM

Question: And the IC50 [5]?
Answer: > 4500 nM

Question: What about the IC50 [6] of the same molecule?
Answer: 110 nM

Question: For `CC(=O)O[C@H]1C(=O)[C@@]2(C)C([C@H](NC(=O)c3ccc(Cl)cc3)[C@]3(O)C[C@H](OC(=O)[C@@H](O)[C@@H](NC(=O)OC(C)(C)C)c4ccccc4)C(C)=C1C3(C)C)[C@@](CO)(OC(C)=O)[C@@H](O)C[C@@H]2O` (some centres undefined), which IC50 [1] is on record?
Answer: > 100 nM

Question: And the IC50 [2]?
Answer: > 1000 nM

Question: And the IC50 [3]?
Answer: > 100 nM

Question: And the IC50 [4]?
Answer: > 1000 nM

Question: How did the IC50 [1] turn out when `COc1cccc(C(=O)N[C@H]2C3[C@](C)(C(=O)[C@H](OC(C)=O)C4=C(C)[C@@H](OC(=O)[C@@H](O)[C@@H](NC(=O)OC(C)(C)C)c5ccccc5)C[C@]2(O)C4(C)C)[C@@H](O)C[C@H]2OC[C@@]32OC(C)=O)c1` (some centres undefined) was run?
Answer: 83 nM

Question: What about the IC50 [2] of the same molecule?
Answer: 1000 nM

Question: What about the IC50 [3] of the same molecule?
Answer: 74 nM

Question: What about the IC50 [4] of the same molecule?
Answer: 1100 nM

Question: What about the IC50 [5] of the same molecule?
Answer: > 4600 nM

Question: And the IC50 [6]?
Answer: 73 nM

Question: For `CC(=O)O[C@H]1C(=O)[C@@]2(C)C([C@H](NC(=O)c3ccc(Cl)cc3)[C@]3(O)C[C@H](OC(=O)[C@@H](O)[C@@H](NC(=O)OC(C)(C)C)c4ccccc4)C(C)=C1C3(C)C)[C@]1(OC(C)=O)CO[C@@H]1C[C@@H]2O` (some centres undefined), which IC50 [1] is on record?
Answer: > 100 nM

Question: And the IC50 [2]?
Answer: > 1000 nM

Question: What about the IC50 [3] of the same molecule?
Answer: > 100 nM

Question: And the IC50 [4]?
Answer: > 1000 nM

Question: For `CC(=O)O[C@H]1C(=O)[C@@]2(C)C([C@H](NC(=O)c3ccccc3)[C@]3(O)C[C@H](OC(=O)[C@@H](O)[C@@H](NC(=O)OC(C)(C)C)c4ccccc4)C(C)=C1C3(C)C)[C@@](CO)(OC(C)=O)[C@@H](O)C[C@@H]2O` (some centres undefined), which IC50 [1] is on record?
Answer: > 100 nM

Question: What about the IC50 [2] of the same molecule?
Answer: > 1000 nM

Question: And the IC50 [3]?
Answer: > 100 nM

Question: What about the IC50 [4] of the same molecule?
Answer: > 1000 nM

Question: Which IC50 [1] does the source give for `CC(=O)O[C@H]1C(=O)[C@@]2(C)C([C@H](NC(=O)c3ccc([N+](=O)[O-])cc3)[C@]3(O)C[C@H](OC(=O)[C@@H](O)[C@@H](NC(=O)OC(C)(C)C)c4ccccc4)C(C)=C1C3(C)C)[C@]1(OC(C)=O)CO[C@@H]1C[C@@H]2O` (some centres undefined) here?
Answer: > 100 nM

Question: What about the IC50 [2] of the same molecule?
Answer: > 1000 nM

Question: And the IC50 [3]?
Answer: > 100 nM

Question: And the IC50 [4]?
Answer: > 1000 nM

Question: What does the source list for `CC(=O)O[C@@]12CO[C@@H]1C[C@H](O)[C@@]1(C)C(=O)[C@H](O)C3=C(C)[C@@H](OC(=O)[C@H](O)[C@@H](NC(=O)OC(C)(C)C)c4ccccc4)C[C@@](O)([C@@H](OC(=O)c4ccccc4)[C@H]21)C3(C)C` [DOCETAXEL]?
Answer: IC50 [1]: 4.1 nM; IC50 [2]: 98 nM; IC50 [3]: 4.4 nM; IC50 [4]: 200 nM; IC50 [5]: 4200 nM; IC50 [6]: 7.9 nM

Question: What does the source list for `CC(=O)O[C@H]1C(=O)[C@@]2(C)[C@H]([C@H](OC(=O)c3ccccc3)[C@]3(O)C[C@H](OC(=O)[C@H](O)[C@@H](NC(=O)c4ccccc4)c4ccccc4)C(C)=C1C3(C)C)[C@]1(OC(C)=O)CO[C@@H]1C[C@@H]2O` [PACLITAXEL]?
Answer: IC50 [1]: 12 nM; IC50 [2]: 960 nM; IC50 [3]: 9.1 nM; IC50 [4]: 1700 nM; IC50 [5]: > 6000 nM; IC50 [6]: 5.5 nM
